Source: patent publication US20250325485A1, “STABLE COMPOSITIONS OF FOXY-5 HEXAPEPTIDE WITH HIGH SOLUBILITY” (WNTRESEARCH AB, priority 2021, published 2025)
In brackets after ≈: the same amount, converted by molar mass. Like-named read-outs stand apart in the source and are kept apart here. Peptide text beside a SMILES is read from it. * marks the point of attachment. For = O=C*

What was measured:
[1] = Stability study at 40° C. for two and four weeks (HPLC purity, appearance); type: physicochemical; conditions: closed containers
Description: A stability study of the compositions according to the first aspect (and the previously prepared trisodium salt) at 40° C. for two and four weeks was performed. Some general trends were found. […] The purity of the tri-salts varied more than the purity of the di-salts (HPLC purity 78-95% at 4 weeks for the tri-salts vs. 87-96% at 4 weeks for the di-salts). Furthermore, as appears from FIG. 6, the absolute purity of the compositions comprising amino acids was generally higher after 4 weeks at 40° C. when compared with compositions comprising other salt formers (value at 4 weeks: ˜90% vs. ˜85% for tri-salts and ˜95% vs. ˜90% for di-salts).
The stability test data for all formed compositions and the starting material itself (Foxy-5 free acid) were measured at 0, 2 and 4 weeks storage @40° C. and included in FIG. 10.
The following parameters for the substance-specific UPLC method were employed for the purity measurements of the stability samples: […]

[2] = cited from earlier work
[3] = pKa by potentiometric titration (Sirius T3); type: physicochemical; conditions: ISA water, 25° C., read-out: pKa [measured]
Description: 2.0.0.0 software. An automated aqueous titration method was used with initial values of 1.0 mg of solid API dissolved in 1.5 mL of ISA water and three sequential titrations on the same sample. In all three titrations, the sample solution was adjusted with 0.5 M KOH to a starting pH of 12 and slowly titrated with 0.5 M HCl to a final pH of 2.
Each titration curve was fit using the SiriusT3Refine Vers. 2.0.0.0 software, and the corresponding pKa values were calculated. […]

[4] = Solubility / lyophilization concentration of Foxy-5 drug substance (background statements); type: physicochemical; conditions: for solubility: water
Excerpt: The current manufacturing process of Foxy-5 applies a product concentration for the final lyophilization of only 3 g/L due to the limited solubility of the salt free drug substance (DS) in water. This presents a bottleneck which severely limits the production throughput for the commercial manufacture of Foxy-5.
While this achievement is impressive, it nonetheless remains problematic to produce Foxy-5 on commercial scale when the final step requires such a high dilution.
Consequently, an increase of batch size by other solubilizing techniques than solvent polarity adjustments was proposed.

[5] = High pH treatment of aqueous Foxy-5 solution tracked by HPLC; type: physicochemical; conditions: after 2 hours at pH=9
Description: After stirring of the Foxy-5 solution for 2 hours at pH 9 (see FIG. 4), the aspartimide peak in the HPLC chromatogram completely disappeared (<LOD). It is known that ring opening of aspartimides occurs at high pH, leading to the formation of either the parent compound and the […] and the D-Asp derivatives. However, significant dimer formation was observed (2.5% after 2 hours at pH=9). The identification of the dimer in the chromatogram was confirmed by co-elution with separately synthesized reference material.

Q: Which appearance after storage ([1]; 2 weeks at 40° C.) does the source give for `CSCC[C@H](NC=O)C(=O)N[C@@H](CC(=O)O)C(=O)NCC(=O)N[C@@H](CS)C(=O)N[C@@H](CCC(=O)O)C(=O)N[C@@H](CC(C)C)C(=O)O` [NMG-P6] (For-MDGCEL-OH) here?
A: sticky, glassy appearance

Q: With `CSCC[C@H](NC=O)C(=O)N[C@@H](CC(=O)O)C(=O)NCC(=O)N[C@@H](CS)C(=O)N[C@@H](CCC(=O)O)C(=O)N[C@@H](CC(C)C)C(=O)O` [DEA-P1] (For-MDGCEL-OH) as the molecule, how does the appearance after storage ([1]; 2 and 4 weeks at 40° C.) read?
A: glassy appearance

Q: For `NC(CO)(CO)CO` [tromethamine], which “pKa of the salt-forming base” value [2] is on record?
A: 8.0

Q: Which pKa ([3]; ASP carboxylic (acidic)) does the source give for `CSCC[C@H](NC=O)C(=O)N[C@@H](CC(=O)O)C(=O)NCC(=O)N[C@@H](CS)C(=O)N[C@@H](CCC(=O)O)C(=O)N[C@@H](CC(C)C)C(=O)O` [Foxy-5, For-Met-Asp-Gly-Cys-Glu-Leu-OH] (For-MDGCEL-OH) here?
A: 3.98

Q: And the pKa ([3]; CYS thiol (acidic))?
A: 9.01

Q: And the pKa ([3]; GLU carboxylic (acidic))?
A: 4.79

Q: And the pKa ([3]; terminal carboxylic (acidic))?
A: 3.39

Q: And the “DS concentration applicable in alternative lyophilization process” value ([4]; aqueous 30% acetonitrile solution as solvent)?
A: up to 7 g/L

Q: What about the aqueous solubility ([4]; free Foxy-5 hexapeptide, for comparison, listed as free Foxy-5 peptide) of the same molecule?
A: 3000 µg/mL (≈ 4.32 mM)

Q: And the solubility ([4]; free Foxy-5 hexapeptide, for comparison, read-out: aqueous solubility)?
A: ~3000 µg/mL (≈ 4.32 mM)

Q: What about the solubility ([4]; read-out: product concentration for the final lyophilization, limited by solubility of salt free drug substance in water) of the same molecule?
A: 3000 µg/mL

Q: What about the dimer formation [5] of the same molecule?
A: 2.5%
